Patent publication US20190227072A1, “Biomarkers for Carcinogenesis and Uses Thereof” (GEORGETOWN UNIVERSITY, priority 2016, published 2019)
“Also recorded” adds a separate entry of the source. Blank lines part the entries; values can stand above or below the compound they belong to.

What was measured:
HepG2 cells = experiment: DHHεdA formation in HepG2 cellular DNA after EH or AA treatment, LC-MS/MS-MRM; assay type: cell-based, human; conditions: 24 h
Experimental: HepG2 cells (#HB-8065, ATCC, Manassas, Va.) were grown in complete DMEM (#10-013, Corning Life Sciences, Tewksbury, Mass.) until 85-90% confluent. Cells were treated with a final concentration of 100 μM or 300 μM of either arachidonic acid (AA) or EH solubilized in 70% EtOH for 24 h. Cells were then scraped down in media and transferred to a centrifuge tube and spun for 3000 rpm for 5 min. The pellet was washed 2× with 1×PBS, centrifuging between washes. DNA was then isolated from the cells and prepared for LC-MS/MS-MRM, after enzymatic hydrolysis as described above.
DNA was isolated by a QIAGEN Blood and Cell Culture DNA Maxi Kit (#13362, QIAGEN Inc., Valencia, Calif.) using the protocol recommended by the manufacturer. For hydrolysis, dry DNA (50 to 1000 μg) was dissolved in 5 mM magnesium chloride and 0.5 mM GSH solution (1 mL per 1 mg of DNA), then 50 fmol of [^15N5]-DHHεdA 1,2 and 50 fmol of [^15N5]-DHHεdA 3,4 were added as internal standards. DNA was hydrolyzed by incubation with DNase I (1300 units per mg of DNA, #D4527-40KU, Sigma-Aldrich, St. Louis, Mo.) for 30 min at 37° C., followed by a second addition of DNase I (1300 units per mg of DNA) and incubation for an additional 10 min at 37° C. Finally, phosphodiesterase I (0.06 units per mg DNA, #P3243-1VL, Sigma-Aldrich, St. Louis, Mo.), alkaline phosphatase (380 units per mg DNA, #10 108 146 001, Roche Diagnostic GmbH, Mannheim, Germany) and adenosine deaminase (0.5 units, #LS009043, Worthington Biochemical Corporation, Lakewood, N.J.) were added and the sample was incubated for 60 min at 37° C. After hydrolysis, a small portion of the hydrolysate was saved for further T quantification, and the remaining sample was purified using Phenomenex Strata-X 33μ 30 mg/1 mL polymeric reverse phase solid phase extraction columns (#8B-S100-TAK, Phenomenex, Torrance, Calif.). Before loading, samples columns were washed by ACN (3×1 mL) and stabilized by 25 mM ammonium formate pH=4.00 (3×1 mL). After loading, DNA hydrolysate columns were washed by 2.5% ACN in 25 mM ammonium formate pH=4.00 (1×1 mL), 5% ACN in 25 mM ammonium formate pH=4.00 (1×1 mL), followed by DHHεdA collection by 30% ACN in 25 mM ammonium formate pH=4.00 (1×1 mL). The DHHεdA fraction was dried using a SpeedVac rotary concentrator, re-dissolved in 400 μL 1:1 water:ACN, transferred to HPLC vials, dried and kept at −20° C. Before quantification, samples were dissolved in 60 μL of water and 37 μL was injected on LC-MS.
Quantification was carried out on a SCIEX 6500 QTRAP triple quadrupole mass spectrometer (AB Sciex LLC, Framingham, Mass.) interfaced with a Waters ACQUITY UPLC liquid chromatography system equipped with Waters ACQUITY UPLC BEH C18 50×2.1 mm, 1.7 μm particle size column (Waters Corporation, Milford, Mass.). The separation of adducts was performed isocratically by eluting with 13.5% ACN, 1 mM ammonium formate buffer over 6.5 min using 0.5 mL/min flow rate at 40° C., followed by 100% ACN wash. The ESI source operated in positive mode. The MRM experiment was performed using ion transitions of 406.2-290.2 m/z (DHHεdA) and 411.2-295.1 m/z ([^15N5]-DHHεdA) with CE of 28 eV for quantification, and those of 406.2-160.1 m/z (DHHεdA) and 411.2-165.0 m/z ([^15N5]-DHHεdA) with a CE of 76 eV were used for structural confirmation. All other parameters were optimized to achieve maximum signal intensity. Calibration curves were constructed for two HPLC resolved peaks before each analysis using standard solutions of DHHεdA and [^15N5]-DHHεdA. A constant concentration of [^15N5]-DHHεdA (1 fmol/μL) was used with different concentrations of DHHεdA (3.3 amol/μL-65 fmol/μL) and analyzed using 37 μL injections by LC-MS/MS-MRM. The standard curves were linear in the range from 0.37 to 800 fmol of DHHεdA on column for both peaks (1/x weighting; r^2=0.9998 and r^2=0.9984 for both LC resolved pairs of DHHεdA stereoisomers 1,2 and 3,4 respectively). […]

[1] = system: Primary human hepatocytes; experiment: FACS detection of DHHεdA in nuclei of EH-treated primary human hepatocytes; assay type: cell-based; conditions: 300 μM EH
Experimental: Primary human hepatocytes (#HUFS1M, Lot#HUM4132, Triangle Research Labs, Durham, N.C.) were cultured in hepatocyte media (#5201, ScienCell Research Laboratories, San Diego, Calif.) until 85-90% confluent. Cells were then treated with a final concentration of 300 μM EH dissolved in 70% EtOH, added to the culture media. The cells were collected at the designated time points following EH treatment: 0, 4, 8, 12 and 24 h. The nuclei were extracted using Nuclei EZ Prep Nuclei Isolation Kit (#NUC-101, Sigma-Aldrich, St. Louis, Mo.) and fixed with 3.7% formaldehyde for 10 min. The nuclei were then prepared for FACS analysis using the method shown previously.
The geometric mean of the fluorescence intensity of Alexa Fluor 488-labeled DHHεdA positive cells was measured using FACS. The output values of triplicate control and EH treatment groups (see above) were averaged and the standard deviation was calculated using Excel. Additionally, a Student's t-test was performed to determine significance by comparing the triplicate values for the control group to those of the EH treated group for each individual time point of 4, 8, 12, and 24 h.

Xpa−/− mice [2] = experiment: 72-week tumor bioassay of Xpa−/− mice fed antioxidant diets; assay type: in vivo; conditions: 72 weeks on diet, control diet 100%
Description: C3H/HeN.Xpa^−/− mice were created by crossing C57/B6. Xpa^−/− mice with C3H/HeN mice. The resulting heterozygous mice were then backcrossed to C3H mice for five generations. Mice homogeneous for the Xpa-null allele on a C3H background were subsequently generated by brother-sister mating. All of the mice were housed in a temperature-controlled, light-regulated space with 12-hour light and dark cycles and were given unrestricted access to food and water throughout the experiments. […] The animals were fed with AIN-76A powder diets obtained from Dyets, Inc. (Bethlehem, Pa.) at the age of 4 weeks; four types of diets (control, α-lipoic acid, Theaphenon E and vitamin-E) were used in this study. The only difference between the diets is the sucrose content to be replaced by the antioxidant (Table 1: the doses of the antioxidants, α-lipoic acid (2 g/kg), Theaphenon E (20 g/kg) and vitamin E (1.8 g/kg)), were selected according to recent studies, respectively. The nutrition for all the four diets was calculated within the range of 3694 to 3766 kcal/kg. (n=6-7 for time dependent DNA adduct assay, n=18-19 for tumor bioassay after 72 weeks under different diets (see Table 4)). […] Xpa^−/− mice were fed with four types of diets (control, Theaphenon E, α-lipoic acid, and vitamin E) for 72 weeks.

Xpa−/− mice [3] = experiment: 32-week bioassay of Xpa−/− mice fed antioxidant diets, γ-OHPdG by LC-MS/MS; assay type: in vivo; conditions: for liver γ-OHPdG levels: antioxidant diet vs control diet, liver DNA, LC-MS/MS; for γ-OHPdG levels in the lungs: antioxidant diet, lung (non-target organ)
Description: All of the mice were housed in a temperature-controlled, light-regulated space with 12-hour light and dark cycles and were given unrestricted access to food and water throughout the experiments. […] The animals were fed with AIN-76A powder diets obtained from Dyets, Inc. (Bethlehem, Pa.) at the age of 4 weeks; four types of diets (control, α-lipoic acid, Theaphenon E and vitamin-E) were used in this study. The only difference between the diets is the sucrose content to be replaced by the antioxidant (Table 1: the doses of the antioxidants, α-lipoic acid (2 g/kg), Theaphenon E (20 g/kg) and vitamin E (1.8 g/kg)), were selected according to recent studies, respectively. The nutrition for all the four diets was calculated within the range of 3694 to 3766 kcal/kg. […] The liver tissues were dissected and kept at −80° C. until usage for DNA isolation.
DNA (100-500 μg) was dissolved in 5 mM magnesium chloride (800 μL per mg DNA) and spiked with 100 fmol of [^13C10,^15N5]-γ-OHPdG and 50 fmol of [^13C10,^15N5]−/− OHPdG. Enzymatic hydrolysis was performed by incubation with DNase I (1300 units/mg DNA) at 37° C. for 30 min followed by a second addition of DNase I (1300 units/mg DNA). After an additional 10 min at 37° C., alkaline phosphatase (380 units/mg DNA), phosphodiesterase I (0.06 units/mg DNA) and adenosine deaminase (0.5 units) were added, and the mixture was incubated for 1 h. After digestion a small aliquot of hydrolysate was used for dG quantification and the remaining digest was purified by solid phase extraction (SPE) using polymeric C18, 30 mg/1 mL, Strata-X columns (Phenomenex, Inc., Torrance, Calif.). Prior to use, the columns were conditioned by ACN (3×1 mL) and 25 mM ammonium formate buffer pH=4 (3×1 mL). After sample loading, the columns were washed with 2.5% ACN in 25 mM ammonium formate buffer pH=4 (1×1 mL). Then, γ-OHPdG adducts were collected by eluting with 5% ACN in 25 mM ammonium formate buffer pH=4 (1×1 mL). Samples were dried over vacuum using a SpeedVac and kept at −80° C. Before quantification assay samples were reconstituted with 50 μl of water, and 37 μL of sample was injected onto LC-MS/MS.
Detection and quantification of γ-OHPdG adducts was carried on AB SCIEX 6500 QTrap triple quadrupole mass spectrometer (SCIEX, Framingham, Mass.) coupled with an ACQUITY UPLC liquid chromatography system (Waters Corporation, Milford, Mass.) equipped with 50×2.1 mm, 1.7 m particle size C18 column (Waters ACQUITY UPLC BEH C18). The separation of adducts was performed isocratically by eluting with 3% ACN, 1 mM ammonium formate buffer over 3.5 min using 0.5 mL/min flow rate at 40° C., followed by 100% ACN wash. The ESI source operated in positive mode. The multiple reaction monitoring (MRM) experiment was performed using ion transitions of 324.2-208.1 m/z (γ-OHPdG) and 339.2-218.1 m/z ([^13C10,^15N5]-γ-OHPdG) with a collision energy (CE) of 20 eV for quantification, and those of 324.2-190.1 m/z (γ-OHPdG) and 339.2-200.1 m/z ([^13C10,^15N5]-γ-OHPdG) with a CE of 47 eV for structural confirmation. All other parameters were optimized to achieve maximum signal intensity.

Compound: CCCCCC(O)C1OC1C=O (centres unmarked) [EH, 2,3-epoxy-4-hydroxynonanal]
DHHεdA peak 1 (HepG2 cells; human, 100 μM): 14.1 adducts/T × 10^9 | DHHεdA peak 2 (HepG2 cells; human, 100 μM): 139.4 adducts/T × 10^9 | Total DHHεdA (HepG2 cells; human, 100 μM): 153.5 adducts/T × 10^9 | DHHεdA peak 1 (HepG2 cells; human, 300 μM): 186.6 adducts/T × 10^9 | DHHεdA peak 2 (HepG2 cells; human, 300 μM): 2043.8 adducts/T × 10^9 | Total DHHεdA (HepG2 cells; human, 300 μM): 2230.4 adducts/T × 10^9 | cell death ([1]; 24 h): less than 20% | mean fluorescence intensity of DHHεdA in nuclei (FACS, 3C9C9) ([1]; 4, 8, 12 and 24 h vs control): significant difference between control and EH treated cells for every time point

Compound: O=C(O)CCCCC1CCSS1 (stereo not drawn) [α-lipoic acid]
HCC incidence (Xpa−/− mice [2]): 65% | liver γ-OHPdG levels (Xpa−/− mice [3]): effectively decreased; also recorded: significant decrease | γ-OHPdG levels in the lungs (Xpa−/− mice [3]): no significant changes

DHHεdA peak 1 (HepG2 cells; HepG2, low dose (100 μM)): bdl | DHHεdA peak 2 (HepG2 cells; HepG2, low dose (100 μM)): bdl | Total DHHεdA (HepG2 cells; HepG2, low dose (100 μM)): bdl
Compound: CCCCC/C=C\C/C=C\C/C=C\C/C=C\CCCC(=O)O [AA, arachidonic acid]

Compound: vitamin E
HCC incidence (Xpa−/− mice [2]): no significant effect | liver γ-OHPdG levels (Xpa−/− mice [3]): but not vitamin E, effectively decreased; also recorded: significant decrease | γ-OHPdG levels in the lungs (Xpa−/− mice [3]): no significant changes
